{"source": "patent US9408393B2", "about": "“Bismuth-thiols as antiseptics for agricultural, industrial and other uses” (Microbion Corporation, priority 2010, dated 2016)", "key": {"S. aureus": {"tested_on": "S. aureus", "test": "Contaminated open fracture, rat femur critical defect model", "type": "in vivo", "details": "BT gel 5 mg/ml, 1 ml in defect, with Cefazolin 5 mgKg^−1 s.c. twice daily 3 days, day 14", "description": "Standard errors of the mean are shown as error bars. Animals euthanized early are not excluded from the analysis, however samples from one animal in group 2 have been excluded due to gross contamination.\nThe aim of this study was to determine whether BTs will reduce infection in a contaminated open fracture model either on their own or with antibiotics. The contaminated rat femur critical defect model is a well-accepted model and was used for the experiments described in this Example. This model offers a standardized model for comparing various possible treatments and their effects on reducing infection and/or improving healing.\nThree formulations of microparticulate BTs were produced in a clinically useful hydrogel gel form as described herein.\nTwo treatment arms were used: in the first arm, BT was used singularly; in the second arm BT was used in conjunction with a systemic antibiotic (ABx).\nSix hours after inoculation with S. aureus, the wound was debrided, irrigated with saline and 1 ml of BT gel inserted within the defect.\nSix hours after inoculation with S. aureus, the wound was debrided, irrigated with saline and 1 ml of BT gel added inserted within the defect. The antibiotic used was Cefazolin at a dose equivalent to 5 mgKg^−1 delivered via sub-cutaneous injection twice daily for a total of 3-days following the injury. The first dose was administered immediately prior to debridement.\nSix hours after inoculation with S. aureus, the wound was debrided and irrigated with saline. The control animals were also treated with Cefazolin as per the regime described above.\nThe procedure for the in vivo rat injury model was performed as described by Chen et al. (2002 J. Orthop. Res. 20:142; 2005 J. Orthop. Res. 23:816; 2006 J. Bone Joint Surg. Am. 88:1510; 2007 J. Orthop. Trauma 21:693). The rats were anesthetized and prepped for surgery. The anterolateral aspect of the femoral shaft was exposed through a 3-cm incision. The periosteum and attached muscle was stripped from the bone. A polyacetyl plate (27×4×4 mm) was placed on the anterolateral surface of the femur. The plates were predrilled to accept 0.9-mm diameter threaded Kirschner wires. The bases of these plates were formed to fit the contour of the femoral shaft. Pilot holes were drilled through both cortices of the femur using the plate as a template and threaded Kirschner wire was inserted through the plate and femur. The notches that were 6 mm apart on the plate served as a guide for bone removal. A small oscillating saw was used to create the defect while the tissue was cooled by continuous irrigation in an effort to prevent thermal damage.\nSeveral groups of 10 animals each were inoculated with 1×10^5 CFU of S. aureus and treated with BT alone or in combination with antibiotics 6 hours post-inoculation as described above. The groups were as follows: Bis-EDT gel; MB-11 gel; MB-8-2 gel; Bis-EDT gel & Abx; MB-11 gel & Abx; MB-8-2 gel & Abx; Control (Abx alone).\nAnimals were euthanized 14 days after surgery and bone and hardware sent for microbiological analysis, the results of which are shown in FIG. 7."}, "S. aureus strains": {"tested_on": "S. aureus strains", "test": "In vitro inhibition from PMMA cement bead vehicle", "type": "cell-based, Staphylococcus aureus", "details": "with and without Tobramicin and Vancomycin"}, "S. epidermidis biofilm": {"tested_on": "S. epidermidis biofilm", "test": "Biofilm prevention concentration (BPC), BisEDT and antibiotics", "type": "cell-based, Staphylococcus epidermidis", "details": "regardless of antibiotic employed", "experimental": "S. epidermidis grown in TSB+2% glucose in polystyrene plates for 48 h at 37° C. Gatifloxacin (GF), clindamycin (CM), minocycline (MC), gentamicin (GM), vancomycin (VM), cefazolin (CZ), nafcillin (NC), and rifampicin (RP). […]"}, "[1]": {"test": "Uninoculated solubility control plate (drug precipitation in test media)", "type": "physicochemical", "details": "uninoculated solubility control plates; BisEDT observation at 32 μg/mL"}, "E. coli": {"tested_on": "E. coli", "test": "Broth dilution MIC, BT-antibiotic combinations", "type": "cell-based", "details": "Escherichia coli; E. coli Ampicillin/Chloramphenicol resistant; antibiotic alone", "experimental": "Materials & Methods. Susceptibility studies were performed by broth dilution in 96-well tissue culture plates (Nalge Nunc International, Denmark) in accordance with NCCLS protocols (National Committee for Clinical Laboratory Standards. (1997). Methods for Dilution Antimicrobial Susceptibility Tests for Bacteria that Grow Aerobically: Approved Standard M7-A2 and Informational Supplement M100-S10. NCCLS, Wayne, Pa., USA).\nBriefly, overnight bacterial cultures were used to prepare 0.5 McFarland standard suspensions, which were further diluted 1:50 (˜2×10^6 cfu/mL) in cation-adjusted Mueller-Hinton broth medium (BBL, Cockeysville, Md., USA). […] Cultures were incubated for 24 h at 37° C. and turbidity was assessed by absorption at 630 nm using an ELISA plate reader (Biotek Instruments, Winooski, Vt., USA) according to the manufacturer's recommendations. […] Viable bacterial counts (cfu/mL) were determined by standard plating on nutrient agar.\nThe checkerboard method was used to assess the activity of antimicrobial combinations. The fractional inhibitory concentration index (FICI) and the fractional bactericidal concentration index (FBCI) were calculated, according to Eliopoulos et al. (Eliopoulos and Moellering, (1996) Antimicrobial combinations. In Antibiotics in Laboratory Medicine (Lorian, V., Ed.), pp. 330-96, Williams and Wilkins, Baltimore, Md., USA). […]"}, "resistant E. coli": {"tested_on": "resistant E. coli", "test": "MIC in Mueller-Hinton II broth, antibiotic + BisEDT", "type": "cell-based, Escherichia coli", "details": "Escherichia coli, read-out: Drug + BE MIC, Chloramphenicol/Ampicillin resistant E. coli; BE 0.33 μg/ml", "description": "Chloramphenicol and ampicillin resistant Escherichia coli were made sensitive to these drugs by the addition of subMIC BisEDT (Table 24).\nTetracycline resistant Escherichia coli were made sensitive to doxycycline by the addition of subMIC BisEDT (Table 25)."}, "Burkholderia cepacia": {"tested_on": "Burkholderia cepacia", "test": "Single-point BisEDT-antibiotic combination FICI", "type": "cell-based", "details": "Bcep 1756"}, "Pseudomonas aeruginosa": {"tested_on": "Pseudomonas aeruginosa", "test": "Single-point BisEDT-antibiotic combination FICI", "type": "cell-based", "details": "PA 1380"}, "Enterococcus faecalis": {"tested_on": "Enterococcus faecalis", "test": "Single-point BisEDT-antibiotic combination FICI", "type": "cell-based", "details": "E Fc 3121"}, "[2]": {"tested_on": "Staphylococcus aureus (SA, MRSA)", "test": "Single-point BisEDT-antibiotic combination FICI", "type": "cell-based"}, "Bukholderia multivorans": {"tested_on": "Bukholderia multivorans", "test": "Single-point BisEDT-antibiotic combination FICI", "type": "cell-based", "details": "Bmult 5665"}, "Klebsiella pneumoniae": {"tested_on": "Klebsiella pneumoniae", "test": "Single-point BisEDT-antibiotic combination FICI", "type": "cell-based", "details": "KP 1231"}, "[3]": {"tested_on": "Staphylococcus aureus (MSSA, MRSA, CA-MRSA)", "test": "microbe, parasite or virus in culture", "type": "cell-based"}, "[4]": {"tested_on": "Streptococcus pneumoniae (SP, PRSP)", "test": "Single-point BisEDT-antibiotic combination FICI", "details": "PRSP 5348"}, "Acinetobacter baumanii": {"tested_on": "Acinetobacter baumanii", "test": "Single-point BisEDT-antibiotic combination FICI", "type": "cell-based", "details": "Abau 2594"}, "Escherichia coli": {"tested_on": "Escherichia coli", "test": "Single-point BisEDT-antibiotic combination FICI", "type": "cell-based"}, "[5]": {"tested_on": "Enterococcus faecium (VSEfm, VREfm)", "test": "microbe, parasite or virus in culture", "type": "cell-based", "details": "vancomycin-resistant Enterococcus faecium (VREfm)"}, "Mycobacterium smegmatis": {"tested_on": "Mycobacterium smegmatis", "test": "Single-point BisEDT-antibiotic combination FICI", "type": "cell-based", "details": "Msmeg 817"}, "[6]": {"details": "neutral pH; cited from earlier work"}}}
{"molecule": "C1C[S][Bi]([S]CC[S][Bi]2[S]CC[S]2)[S]1", "note": "[BisEDT, bismuth-1,2-ethanedithiol]", "values": [{"measurement": "S. aureus infection detected on hardware, effect on Cefazolin activity", "setting": "S. aureus", "value": "did not appear to affect Cefazolin activity"}, {"measurement": "S. aureus infection of injured bone, effect on Cefazolin activity", "setting": "S. aureus", "value": "enhanced"}, {"measurement": "Effect on S. aureus strains in vitro from PMMA cement beads", "setting": "S. aureus strains", "value": "inhibitory effects"}, {"measurement": "Biofilm at 0.1 μg/ml BisEDT", "setting": "S. epidermidis biofilm", "value": "no biofilm was detected"}, {"measurement": "Solubility in MIC test media", "setting": "[1]", "value": "trace precipitate"}]}
{"molecule": "O=C(N[C@H](CO)[C@H](O)c1ccc([N+](=O)[O-])cc1)C(Cl)Cl", "note": "[CM, chloramphenicol]", "values": [{"measurement": "MIC", "setting": "E. coli", "value": 220, "unit": "µg/mL"}, {"measurement": "MIC", "setting": "resistant E. coli", "value": 12.7, "unit": "µg/mL"}]}
{"molecule": "C[C@@H](O)[C@H]1C(=O)N2C(C(=O)O)=C(SCCN=CN)C[C@H]12", "note": "[Imipenem]", "values": [{"measurement": "FICI, single-point BisEDT-antibiotic combination", "setting": "Burkholderia cepacia", "value": 0.73}, {"measurement": "FICI, single-point BisEDT-antibiotic combination", "setting": "Pseudomonas aeruginosa", "value": 1.12}, {"measurement": "FICI, single-point BisEDT-antibiotic combination", "setting": "Enterococcus faecalis", "value": 0.73}, {"measurement": "FICI, single-point BisEDT-antibiotic combination", "setting": "[2]; MRSA 773", "value": 1.48}, {"measurement": "FICI, single-point BisEDT-antibiotic combination", "setting": "[2]; SA 100", "value": 0.67}, {"measurement": "FICI, single-point BisEDT-antibiotic combination", "setting": "Bukholderia multivorans", "value": 1.23}, {"measurement": "FICI, single-point BisEDT-antibiotic combination", "setting": "Klebsiella pneumoniae", "value": 1.23}, {"measurement": "MIC90", "setting": "[3]; MSSA clinical isolates", "value": 0.03, "unit": "µg/mL"}, {"measurement": "MIC", "setting": "[3]; S. aureus 29213, one value on a single run, one dilution below published QC range, read-out: MIC, quality control strain", "value": 0.008, "unit": "µg/mL"}, {"measurement": "FICI, single-point BisEDT-antibiotic combination", "setting": "[4]", "value": 0.43}, {"measurement": "FICI, single-point BisEDT-antibiotic combination", "setting": "Acinetobacter baumanii", "value": 0.81}, {"measurement": "FICI, single-point BisEDT-antibiotic combination", "setting": "Escherichia coli; EC 102", "value": 1.11}, {"measurement": "FICI, single-point BisEDT-antibiotic combination", "setting": "Escherichia coli; EC 2232", "value": 1.29}]}
{"molecule": "CC(=O)NC[C@H]1CN(c2ccc(N3CCOCC3)c(F)c2)C(=O)O1", "note": "[Linezolid]", "values": [{"measurement": "FICI, single-point BisEDT-antibiotic combination", "setting": "Enterococcus faecalis", "value": 1.23}, {"measurement": "FICI, single-point BisEDT-antibiotic combination", "setting": "[2]; MRSA 773", "value": 1.23}, {"measurement": "FICI, single-point BisEDT-antibiotic combination", "setting": "[2]; SA 100", "value": 1.23}, {"measurement": "FICI, single-point BisEDT-antibiotic combination", "setting": "[4]", "value": 1.11}, {"measurement": "MIC90", "setting": "[5]", "value": 2, "unit": "µg/mL"}]}
{"molecule": "[H]/N=C(/N)N[C@H]1[C@H](O)[C@@H](O)[C@H](O[C@@H]2O[C@@H](C)[C@](O)(C=O)[C@H]2O[C@@H]2O[C@@H](CO)[C@H](O)[C@@H](O)[C@@H]2NC)[C@@H](N/C(N)=N\\[H])[C@@H]1O", "note": "[Streptomycin]", "values": [{"measurement": "FICI, single-point BisEDT-antibiotic combination", "setting": "Burkholderia cepacia", "value": 1.37}, {"measurement": "FICI, single-point BisEDT-antibiotic combination", "setting": "Pseudomonas aeruginosa", "value": 1.98}, {"measurement": "FICI, single-point BisEDT-antibiotic combination", "setting": "Enterococcus faecalis", "value": 0.61}, {"measurement": "FICI, single-point BisEDT-antibiotic combination", "setting": "[2]; MRSA 773", "value": 0.95}, {"measurement": "FICI, single-point BisEDT-antibiotic combination", "setting": "Bukholderia multivorans", "value": 1.12}, {"measurement": "FICI, single-point BisEDT-antibiotic combination", "setting": "Klebsiella pneumoniae", "value": 1.04}, {"measurement": "FICI, single-point BisEDT-antibiotic combination", "setting": "[4]", "value": 0.66}, {"measurement": "FICI, single-point BisEDT-antibiotic combination", "setting": "Mycobacterium smegmatis", "value": 1.13}, {"measurement": "FICI, single-point BisEDT-antibiotic combination", "setting": "Acinetobacter baumanii", "value": 2.62}, {"measurement": "FICI, single-point BisEDT-antibiotic combination", "setting": "Escherichia coli; EC 2232", "value": 1.29}]}
{"molecule": "Zinc pyrithione", "values": [{"measurement": "Solubility in water", "setting": "[6]", "value": 8, "unit": "ppm"}]}
